{"source": "patent US6160166A", "about": "“Phosphonated agents and their antiangiogenic and antitumorigenic use” (priority 1999, dated 2000)", "key": {"[1]": {"tested_on": "human microvascular endothelial cells", "assay": "Sensitivity of microvascular versus large vessel endothelium to inhibition", "type": "cell-based"}, "PKC type I-III": {"tested_on": "PKC type I-III", "settings": "Mahoney et al., 1990; read-out: ID50, PKC type I-III activity; cited from earlier work"}, "[2]": {"tested_on": "MCF-7 human breast cancer cells", "settings": "48 hr (Foekens et al., 1993); cited from earlier work"}, "[3]": {"tested_on": "human microvascular endothelial cells", "assay": "Detachment / toxicity of cultured human microvascular endothelial cells", "type": "cell-based"}, "[4]": {"tested_on": "human dermal Microvascular endothelial cells", "assay": "Inhibition of bFGF-stimulated growth of human microvascular endothelial cells", "type": "cell-based", "settings": "Homo sapiens, Endothelial cell; bFGF-stimulated; estimated from dose response curve", "procedure": "Inhibition of cell growth was evaluated by measuring total protein and total DNA and the IC50 was estimated for each dose response curve."}, "urokinase receptor": {"tested_on": "urokinase receptor", "settings": "cited from earlier work"}, "[5]": {"tested_on": "binding of growth factors to their receptors", "settings": "intact cells; cited from earlier work"}, "[6]": {"tested_on": "porcine pulmonary artery macrovascular endothelial cell", "assay": "Porcine pulmonary artery macrovascular endothelial cell growth, total protein and total DNA", "type": "cell-based"}, "HMEC-1": {"tested_on": "HMEC-1", "assay": "HMEC-1 cell growth, total protein and total DNA", "type": "cell-based, human", "procedure": "Logarithmically growing HMEC-1 or HMVEC-d cells are seeded at 2×10^4 cells/well in six well plates (Falcon) containing 2 ml of MCDB-131 medium supplemented with 5% fetal bovine serum (FBS) (Hyclone). […] After removal of medium, the cell layer is washed twice with 1 ml of cold Hanks balanced salt solution and the cells are dislodged by trypsinization. The cells are collected in microcentrifuge tubes and washed twice with 1 ml of cold phosphate-buffered saline, and then 1 ml of cold 10% trichloroacetic acid are added. Acid precipitable radioactivity are collected on a glass fiber filter (Whatman Grade GF/C) and the radioactivity is determined in a liquid scintillation spectrometer (Packard)."}, "[7]": {"tested_on": "different cancer cell lines", "assay": "MTT cell proliferation, different cancer cell lines", "type": "cell-based, human", "settings": "cancer cell lines in vitro"}, "prostate carcinoma cells": {"tested_on": "prostate carcinoma cells", "settings": "after 24 hr exposure (Qiao et al., 1994); cited from earlier work"}, "[8]": {"tested_on": "chick chorioallantoic membrane (CAM)", "assay": "Chick egg chorioallantoic membrane (CAM) assay, 6-day, growing vessels: inhibition of angiogenesis", "type": "in vivo", "excerpt": "The purpose of this experiment was to test the ability of the phosphonic acid agents described above to inhibit angiogenesis. […]\nComparison of the inhibition of angiogenesis by 70 nmol of\nsuramin or a equimolar amount of a phosphonic acid agents in the\n6-day and 11-day chick egg chorioallantoic (CAM) assay."}, "p34cdc2 kinase": {"tested_on": "p34cdc2 kinase", "assay": "p34cdc2 kinase activity and tyrosine phosphorylation", "type": "biochemical, human", "procedure": "The effects of selected phosphonic acid agents on the p34cdc2-related kinase activity are carried out essentially as described by Bojanowski et al. (1994).\nCytoplasmic and nuclear extractions: 100 million cells (HMVEC-1 or HMEC-d) are washed twice with cold PBS and incubated in hypotonic phosphate buffer for 45 min on ice. The cells are then disrupted with a Dounce homogenizer and nuclei separated from the cytoplasmic fraction by centrifugation and extensive washing with hypotonic buffer. The nuclei are incubated for 30 min in the presence of 350 mM NaCl and the nonsoluble nuclear material removed by ultracentrifugation (20 min at 40000 rpm in TL 100 Beckman ultracentrifuge). The protein concentration are adjusted to 1.5 mg/ml, 20% of glycerol are added and the extracts stored at -20° C. […]\nReactions are stopped by placing the samples on ice and spotting 5 μl of the reaction mixture onto P81 phosphocellulose filters (Whatman). Filters are washed three times in 50 mM phosphoric acid, dried and the radioactivity retained on the filters are determined by liquid scintillation (Beckman).\nWestern blot: the precipitates are electrophoresed in 12.5% 12×12 cm ready-made polyacrylamide gels (Daichi Co.) and the proteins transferred to Immobilon PVDF membranes (Millipore). […] A Pharmacia LKB image master DTS chromoscan are used for band quantification (Bojanowski et al., 1994)."}, "[9]": {"tested_on": "human cerebral meningioma cells", "settings": "Schrell et al., 1995; cited from earlier work"}, "[10]": {"tested_on": "microvascular endothelial cell migration", "assay": "Endothelial cell migration in vitro", "type": "cell-based"}, "[11]": {"tested_on": "tyrosine specific phosphorylation of cellular proteins", "settings": "Ghosh and Miller, 1993; cited from earlier work"}, "[12]": {"tested_on": "bFGF binding sites of human microvascular endothelial cells", "assay": "I125 bFGF binding to human microvascular endothelial cells", "settings": "for percentage of inhibition of I125 bFGF binding: low and high affinity binding sites", "excerpt": "However, for the same concentrations of the phosphonic acid agents, the inhibition of growth factor binding was always less than 5% in relation to the control.\nHowever, for the same concentrations of phosphonic acid agents, the inhibition of growth factor binding was always less than 5% in relation to the control."}, "[13]": {"tested_on": "angiogenesis in mouse (Matrigel plus bFGF and heparin)", "settings": "Pesenti et al. (1992); cited from earlier work"}, "[14]": {"tested_on": "human dermal microvascular and porcine pulmonary artery endothelial cells", "assay": "bFGF-stimulated and non-stimulated endothelial cell growth (total protein, total DNA)", "type": "cell-based", "settings": "suramin 210 μM", "excerpt": "Suramin is a highly charged molecule with six sulfonate groups that are ionized at physiologic pH."}}, "note": "“Also recorded” adds a separate entry of the source.", "data": [{"smiles": "Cc1ccc(C(=O)Nc2ccc(S(=O)(=O)O)c3cc(S(=O)(=O)O)cc(S(=O)(=O)O)c23)cc1NC(=O)c1cccc(NC(=O)Nc2cccc(C(=O)Nc3cc(C(=O)Nc4ccc(S(=O)(=O)O)c5cc(S(=O)(=O)O)cc(S(=O)(=O)O)c45)ccc3C)c2)c1", "note": "[suramin]", "values": [{"measurement": "time to plateau of cell incorporation", "setting": "HMEC-1 cells", "value": "around 24 hr"}, {"measurement": "sensitivity of microvascular versus large vessel endothelium", "setting": "[1]", "value": "much more sensitive to inhibition"}, {"measurement": "IC50", "setting": "PKC type I-III", "value": 50, "unit": "µM"}, {"measurement": "effect on cell cycle", "setting": "[2]", "value": "accumulation of MCF-7 human breast cancer cells in the G2-M phase of the cell cycle"}, {"measurement": "floating cells", "setting": "[3]; 24 hr of treatment", "value": "a large number of floating cells"}, {"measurement": "time for detection of suramin toxicity on endothelial cells", "setting": "[3]; concentrations higher than 200 μM", "value": "> 12", "unit": "h"}, {"measurement": "IC50", "setting": "[4]", "value": 437, "unit": "µM"}, {"measurement": "inhibition of urokinase receptor mediated plasminogen activation", "setting": "urokinase receptor", "value": "specific inhibition of the activity of the urokinase receptor mediated cell surface plasminogen activation system"}, {"measurement": "effect on binding of growth factors to their receptors", "setting": "[5]", "value": "able to disrupt the binding of growth factors to their receptors in intact cells"}, {"measurement": "effect on total protein and total DNA", "setting": "[6]; suramin higher than 250 μg/ml", "value": "significant dose-related reduction in total protein and total DNA"}, {"measurement": "effect on porcine pulmonary artery macrovascular endothelial cell growth", "setting": "[6]; up to 100 μg/ml", "value": "did not have any significant inhibitory effect"}, {"measurement": "effect on cell growth", "setting": "HMEC-1; 50-100 μg/ml", "value": "stimulatory effect on cell growth"}, {"measurement": "effect on total protein and total DNA", "setting": "HMEC-1; suramin higher than 250 μg/ml, agents lower concentrations", "value": "significant dose-related reduction in total protein and total DNA"}, {"measurement": "effect on HMEC-1 cell growth", "setting": "HMEC-1; up to 100 μg/ml", "value": "did not have any significant inhibitory effect"}, {"measurement": "antiproliferative activity, in words", "setting": "[7]", "value": "inhibited cell proliferation in a dose-related manner"}, {"measurement": "effect on cell cycle", "setting": "prostate carcinoma cells", "value": "slowly arrested in the G1 phase"}, {"measurement": "6-day CAM % Inhibition of angiogenesis", "setting": "[8]; 70 nmol or equimolar amount, 6-day CAM", "value": 64, "unit": "%"}, {"measurement": "inhibition of angiogenesis in the 6-day CAM, in words", "setting": "[8]; 6-day CAM, rapidly growing vessels", "value": "showed antiangiogenic activity; also recorded: clearly affected both the growing and established vascular cells"}, {"measurement": "ID50, dose that produces 50% inhibition of angiogenesis", "setting": "[8]; CAM assay", "value": 75, "unit": "nmol"}, {"measurement": "inhibition of p34cdc2 kinase", "setting": "p34cdc2 kinase", "value": "inhibits p34cdc2 kinase activity in a dose-related manner"}, {"measurement": "p34cdc2 kinase tyrosine phosphorylation / mobility", "setting": "p34cdc2 kinase; Western blot, anti-phosphotyrosine immunoblot", "value": "a difference in p34cdc2 kinase tyrosine phosphorylation"}, {"measurement": "effect on proliferation and cell cycle", "setting": "[9]", "value": "inhibited proliferation of human cerebral meningioma cells and increased the percentage of cells in the S and G2/M phase of the cell cycle; also recorded: inhibited meningioma cell proliferation in five different tumor lines by arresting cells in G2-M and S phases of the cell cycle"}, {"measurement": "minimal effective concentration", "setting": "[10]; Endothelial cell, read-out: concentration inhibiting endothelial cell migration", "value": "> 150", "unit": "µg/mL"}, {"measurement": "inhibition of migration, in words", "setting": "[10]; number of cells migrated and distance traveled", "value": "significantly inhibited endothelial cell migration"}, {"measurement": "effect on tyrosine specific phosphorylation", "setting": "[11]", "value": "increase the global tyrosine specific phosphorylation of cellular proteins in vivo"}, {"measurement": "percentage of inhibition of I125 bFGF binding", "setting": "[12]; 25 μM", "value": 9, "unit": "%"}, {"measurement": "percentage of inhibition of I125 bFGF binding", "setting": "[12]; 70 μM", "value": 96, "unit": "%"}, {"measurement": "effect on bFGF binding, in words", "setting": "[12]; same molar concentrations as suramin", "value": "inhibited I^125 bFGF binding in a dose-related manner"}, {"measurement": "inhibition of angiogenesis in vivo, in words", "setting": "[13]", "value": "effective inhibitor of angiogenesis in vivo"}, {"measurement": "effect on bFGF stimulation of endothelial cell growth", "setting": "[14]", "value": "inhibited the stimulatory effect of bFGF; also recorded: inhibited the growth factor stimulatory effect"}]}]}
